Measured values from patent US9974825B2, “Peptides Des-[Asp1]-[Ala1], angiotensin-(1-7) agonist and pharmaceutical compositions for the treatment of diseases” (UNIVERSIDADE FEDERAL DE MINAS GERAIS, priority 2008, dated 2018).

How the values were obtained:
[1] = test system: aorta rings of Mas+/+ mice; experiment: Vasorelaxation in phenylephrine-precontracted aorta rings of wild-type (Mas+/+) mice; format: cell-based, mice (C57/BI-6 and FVB/N); details: both lineages C57/BI-6 and FVB/N, precontracted with fenilefrine 0.1 μM
Protocol: This example describes the vasodilating effect of Ala^1-Ang-(1-7), independently of the Mas receptor, on aorta rings of mice with genetic deletion of the Mas receptor (Mas−/−) and wild-type mice (Mas+/+) from two different lineages, C57/BI-6 and FVB/N.
(§1) The original rings of the descending thoracic aorta (2 mm), free from adipose tissue and connective tissue, were incubated in gasified solution (95% O2 and 5% CO2) of Krebs-Henseleit (mmol/L): NaCl 110.8, KCl 5.9, NaHCO3 25.0, MgSO4 1.07, CaCl2 2.49, NaH2PO4 2.33 and glucose 11.51, under a temperature of 37° C. and a 0.5 g tension, being equilibrated for 1 hour. The functional presence of endothelium was tested by its relaxing capacity produced by acetylcholine [ACh] (10 μM) on vessels precontracted with fenilefrine (0.3 μM). Only the vessels showing relaxation above 70% of extended contraction produced by fenilefrine were taken into account. […]
The aorta rings of mice Mas−/− and Mas+/+ from both lineages (C57/BI-6 and FVB/N) were precontracted to achieve the same tension level (approximately a 1.0 g tension) at a submaximum concentration of fenilefrine (0.1 μM). […] The vasodilating effects of Ala^1-Ang-(1-7) and Ang-(1-7) were expressed as a percentage of relaxation relative to the maximum contraction induced by fenilefrine. […]

[2] = test system: aorta rings of AT2−/− mice; experiment: Vasorelaxation in precontracted aorta rings of AT2-/- mice; format: cell-based; details: precontracted with fenilefrine 0.1 μM
Protocol: This example describes the vasodilating effect of Ala^1-Ang-(1-7) and Ang-(1-7)—which is independent of the AT2 receptor—on the aorta of mice with genetic deletion of AT2 (AT2−/−) receptor.
as §1, with “account. Data on mechanical activity were isometrically obtained by using an amplified strength transducer (Model TMB-4; World Precision Instruments, Inc. Sarasota, Fla., USA) and converted to digital signal (AD16JR; World Precision Instruments, Inc.).” for “account.”
The aorta rings of AT2−/− mice were precontracted (approx. 1.0 g of tension) with a felinefrine submaximum concentration (0.1 μM). […] The vasodilating effects of Ala^1-Ang-(1-7) and Ang-(1-7) were expressed as a relaxation percentage relative to the maximum contraction induced by fenilefrine. […]

Row | Substance | vasorelaxation (relaxation relative to maximum contraction induced by fenilefrine) [1] | vasodilating effect [2]
1 | Asp^1-Arg^2-Val^3-Tyr^4-Ile^5-His^6-Pro^7 [Ang-(1-7)] | produced vasorelaxation | preserved
2 | Ala^1-Arg^2-Val^3-Tyr^4-Ile^5-His^6-Pro^7 [Ala^1-Ang-(1-7)] | produced vasorelaxation | preserved
